“And” between values parts separate entries of the source, which are not always exact repeats. Equal values may be shown once. “Also recorded” adds a separate entry of the source.
What was measured:
[1] = system: humoral immune response to ram erythrocytes; assay: titers of hemagglutinins after simultaneous administration of preparation and RE (inductive phase); format: in vivo, mice
[2] = clinical case, treatment of duodenal ulcer; format: in vivo, human; settings: Patient K
Description: Apart from the studies on animals described above, clinical studies of immunocorrection activity of amino derivatives of 2,3-dihydrophthalazine-1,4-dione represented by sodium salt of 5-amino-2,3-dihydrophthalazine-1,4-dione in the treatment of various diseases on human, in particular, anti-inflammatory immunocorrecting activity in the treatment of ulcers, were carried out.
Concomitant catarrhal bulbitis was present. The patient partly lost their working capacity due to this disease.
Treatment: Periulceral injection of 100 mg of sodium salt of 5-amino-2,3-dihydrophthalazine-1,4-dione was made. One more injection of the preparation was made on the 7th day. The patient also received the preparation in Almagel suspension and, since the 7th day, in Maalox (in view of constipations). They were simultaneously treated with omeprazol in accordance with usual regimen and, since the 7th day, De-nol with trichopol.

[3] = anaphylactogenic activity; format: in vivo, guinea pigs
Description: Allergenic effects of the preparation were evaluated on female guinea pigs weighing 250 to 300 g supplied by RF AMS Central Brooder of Laboratory Animals. A total of 70 guinea pigs have been studied. Intraperitoneal and intradermal injections of the preparations were used.
The preparation under study was injected to three groups of guinea pigs in accordance with the following schedule: first 0.1-ml injection of various doses (1 μg, 10 μg and 100 μg) was made subcutaneously; second 0.1-ml injection of the preparation was made on the next day intramuscularly in the thigh; and the third 0.1-ml injection was made one day later. On day 21, the shocking injection of main pharmacological effect with single application was made.

[4] = system: humoral immune response to ram erythrocytes; assay: titers of hemagglutinins, preparation five days after immunization with RE (productive phase); format: in vivo, mice
[5] = system: phagocytic cells; assay: phagocytosis in vivo (peritoneal neutrophils and macrophages, St. aureus); set-up: species or system Strain C57BL6 mice
Description: Intraperitoneal injection of 3 ml of 3% peptone was made, and 2 hours later the animals were killed with chloroform. The mice were autopsied in aseptic conditions. Liquid was aspirated from abdominal cavity with a Pasteur's pipette and transferred to centrifuge test tubes; then centrifuging was carried out for 10 minutes at 1,000 rpm. […] Similar volume of Strain 1991 St. aureus was added to cells in a proportion of 1:10 proportion and incubated at 37° C. for 30 minutes. After incubation, smears were prepared on slides, fixed in methanol for 20 minutes and processed with Romanovsky-Giemsa's stain for 30 minutes. For evaluating the phagocytic activity of macrophages, the animals were tested on the third day after administration of peptone. Further testing was carried out similarly with that of neutrophils. The results were evaluated using a microscope at a magnification of 90×. Phagocytic index and phagocytic number were determined.

[6] = system: neutrophils; assay: neutrophil phagocytosis in vitro; format: cell-based, human; settings: for Phagocytic Index, Study Group / Phagocytic number, Study Group: individual samples
Description: For evaluating the effect of the preparation on phagocytosis in vitro, blood sample was collected from donor's cubital vein in a test tube containing heparin at a dose of 10 units per ml of blood. 0.8 ml of 3% gelatin prepared based on Medium 199 were added to 2 ml of blood. The test tubes were incubated in a thermostat at 37° C. for 20 minutes. Then the supernatant containing cells was aspirated to a centrifuge tube. Cells were twice washed with Medium 199 with centrifuging at 1,000 rpm. 1 ml of Medium 199 was added to the sediment and neutrophils were counted in Goryaev's chamber. Then, cellular suspension containing 2·10^6 neutrophils in 1 ml was prepared based on Medium 199. Simultaneously, suspension of St. aureus in a concentration of 20·10^6/ml was prepared. After preliminary opsonization with an equal volume of pooled human plasma in a thermostat at 37° C. for 20 minutes, the Staphylococcus suspension was centrifuged and washed with Medium 199. The preparation in 200, 20 and 2 μg/ml concentrations was added to mixture of equal volumes of neutrophils and staphylococci; Medium 199 was added to control test tubes. After incubation in a thermostat at 37° C. for 30 minutes, the test tubes where centrifuged, and preparations were prepared in accordance with the procedure described above. Phagocytic index and phagocytic number for study group were compared with the same for control group.

[7] = clinical study, treatment of acute intestinal infections (AII); format: in vivo, human
Description: Efficacy of the preparation in decreasing the gravity of manifestations of various forms of AII was evaluated in accordance with the used program of study with aid of a three-point scale.
After the study was finished, general evaluation of clinical efficacy and safety of the preparation based on a 4-point scale, depending on nosologic forms, was carried out.

[8] = system: macrophages, interleukins and other acute phase proteins; settings: e.g. patients with malignant tumors; dose range of 10 to 1000 mg; cited from earlier work
[9] = 0.2 μg, Strain C57BL6 mice, 7 days
[10] = 0.2 μg, Strain C57BL6 mice, 14 days
[11] = 0.2 μg, Strain C57BL6 mice, 21 days
[12] = 0.2 μg, Strain CBA mice, 7 days
[13] = 0.2 μg, Strain CBA mice, 14 days
[14] = 0.2 μg, Strain CBA mice, 21 days
[15] = 2 μg, Strain C57BL6 mice, 7 days
[16] = 2 μg, Strain C57BL6 mice, 14 days
[17] = 2 μg, Strain C57BL6 mice, 21 days
[18] = 20 μg, Strain C57BL6 mice, 7 days
[19] = 20 μg, Strain C57BL6 mice, 14 days
[20] = 20 μg, Strain C57BL6 mice, 21 days
[21] = 20 μg, Strain CBA mice, 14 days
[22] = 20 μg, Strain CBA mice, 21 days
[23] = 200 μg, Strain C57BL6 mice, 7 days
[24] = 200 μg, Strain C57BL6 mice, 14 days
[25] = 200 μg, Strain C57BL6 mice, 21 days
[26] = 200 μg, Strain CBA mice, 7 days
[27] = 200 μg, Strain CBA mice, 14 days
[28] = 200 μg, Strain CBA mice, 21 days
[29] = sensitization 10 μg, shocking injection 100 μg, 10 animals
[30] = sensitization 100 μg, shocking injection 100 μg, 10 animals
[31] = third dose group, dose cell empty
[32] = Acute gastroenteritis, 4 patients
[33] = Alimentary toxoinfection, 4 patients

SMILES: Nc1cccc2c(=O)[nH][nH]c(=O)c12.[Na] [sodium salt of 5-amino-2,3-dihydrophthalazine-1,4-dione]
- Titers of hemagglutinins [1, 9]: 59 ± 58
- Titers of hemagglutinins [1, 10]: 50 ± 48
- Titers of hemagglutinins [1, 11]: 266 ± 200
- Titers of hemagglutinins [1, 12]: 112 ± 106
- Titers of hemagglutinins [1, 13]: 168 ± 109
- Titers of hemagglutinins [1, 14]: 15 ± 13
- Titers of hemagglutinins [1, 15]: 154 ± 57
- Titers of hemagglutinins [1, 16]: 256 ± 0
- Titers of hemagglutinins [1, 17]: 24 ± 20
- Titers of hemagglutinins ([1]; 2 μg, Strain CBA mice, 7 days): 28 ± 26
- Titers of hemagglutinins ([1]; 2 μg, Strain CBA mice, 14 days): 154 ± 97
- Titers of hemagglutinins ([1]; 2 μg, Strain CBA mice, 21 days): 10 ± 8
- Titers of hemagglutinins [1, 18]: 91 ± 64
- Titers of hemagglutinins [1, 19]: 512 ± 0
- Titers of hemagglutinins [1, 20]: 560 ± 160
- Titers of hemagglutinins ([1]; 20 μg, Strain CBA mice, 7 days): 96 ± 37
- Titers of hemagglutinins [1, 21]: 256 ± 0
- Titers of hemagglutinins [1, 22]: 83 ± 70
- Titers of hemagglutinins [1, 23]: 512 ± 0
- Titers of hemagglutinins [1, 24]: 44 ± 42
- Titers of hemagglutinins [1, 25]: 160 ± 138
- Titers of hemagglutinins [1, 26]: 35 ± 33
- Titers of hemagglutinins [1, 27]: 75 ± 59
- Titers of hemagglutinins [1, 28]: 46 ± 32
- titers of hemagglutinins (trend) ([1]; Strain C57BL6 animals of low reaction, 21st day, 0.2 or 20 μg per mouse): tendency to increase
- pain ([2]; 2nd day of treatment, with omeprazol and antacids): Significant weakening
- pain ([2]; 7th day): completely disappeared
- decrease in ulcer dimensions ([2]; by the 7th day): ⅓
- decrease in dimensions of ulcerous defect ([2]; by the 15th day of treatment): 2/3
- scarring of ulcer ([2]; by the 21st day, total of 1,000 mg): completely scarred
- expression of anaphylactic activity ([3]; demonstrated only for high doses): very weak
- Number of animals with expression of anaphylactic shock − ([3]; sensitization 1.0 μg, shocking injection 100 μg, 10 animals): 10
- Weigl's index ([3]; sensitization 10 μg, shocking injection 100 μg): 0.2
- Number of animals with expression of anaphylactic shock + [3, 29]: 2
- Number of animals with expression of anaphylactic shock − [3, 29]: 7
- Weigl's index ([3]; sensitization 100 μg, shocking injection 100 μg): 0.3
- Number of animals with expression of anaphylactic shock + [3, 30]: 1
- Number of animals with expression of anaphylactic shock ++ [3, 30]: 1
- Number of animals with expression of anaphylactic shock − [3, 30]: 5
- Titers of hemagglutinins [4, 9]: 0
- Titers of hemagglutinins [4, 10]: 2 ± 0
- Titers of hemagglutinins [4, 11]: 35 ± 10
- Titers of hemagglutinins [4, 12]: 0
- Titers of hemagglutinins [4, 13]: 9 ± 7
- Titers of hemagglutinins [4, 14]: 0
- Titers of hemagglutinins [4, 15]: 13 ± 11
- Titers of hemagglutinins [4, 16]: 54 ± 50
- Titers of hemagglutinins [4, 17]: 226 ± 201
- Titers of hemagglutinins ([4]; 2 μg, Strain CBA mice, 7 days): 10 ± 8
- Titers of hemagglutinins ([4]; 2 μg, Strain CBA mice, 14 days): 173 ± 110
- Titers of hemagglutinins ([4]; 2 μg, Strain CBA mice, 21 days): 22 ± 10
- Titers of hemagglutinins [4, 18]: 26 ± 19
- Titers of hemagglutinins [4, 19]: 256 ± 0
- Titers of hemagglutinins [4, 20]: 304 ± 105
- Titers of hemagglutinins ([4]; 20 μg, Strain CBA mice, 7 days): 0
- Titers of hemagglutinins [4, 21]: 236 ± 0
- Titers of hemagglutinins [4, 22]: 23 ± 10
- Titers of hemagglutinins [4, 23]: 0
- Titers of hemagglutinins [4, 24]: 96 ± 42
- Titers of hemagglutinins [4, 25]: 120 ± 95
- Titers of hemagglutinins [4, 26]: 28 ± 13
- Titers of hemagglutinins [4, 27]: 158 ± 120
- Titers of hemagglutinins [4, 28]: 47 ± 30
- effect on productive phase of immune response ([4]; all doses, Strain CBA mice of high reaction): suppressive effect
- level (titers) of hemagglutinins ([4]; low reaction Strain C57BL6 mice, 21st day): tendency to increase; also recorded: significant increase
- production of antibodies ([4]; wide range of doses, Strain CBA mice, 7th and 14th days after immunization): inhibition

SMILES: Nc1cccc2c(=O)[nH][nH]c(=O)c12.[K] [potassium salt of 5-amino-2,3-dihydrophthalazine-1,4-dione]
- stimulating effect on phagocytic cells / phagocytic activity in vivo ([5]; dose 200 μg): no stimulating effect
- ability of phagocytic cells to intake microbial cells ([5]; doses of 2 ug and 20 ug): statistically significant increase
- phagocytic activity of macrophages in mice ([5]; doses ranging from 200 to 2 μg): stimulating effects
- Phagocytic Index, Study Group, Mean ([6]; dose 20 μg): 7.8 ± 0.04
- Phagocytic number, Study Group, Mean ([6]; dose 20 μg): 89 ± 1.25
- Phagocytic Index, Study Group ([6]; dose 20 μg): 3.9 and 2.8 and 4.6 and 6.8 and 13.2 and 9.1 and 16.3 and 5.2
- Phagocytic number, Study Group ([6]; dose 20 μg): 80 and 96 (2×) and 88 and 94 and 84 (2×) and 86
- Phagocytic Index, Study Group, Mean ([6]; dose 200 μg): 6.0 ± 0.04
- Phagocytic number, Study Group, Mean ([6]; dose 200 μg): 77 ± 0.26
- Phagocytic Index, Study Group ([6]; dose 200 μg): 5.6 and 4.7 and 9.1 and 6.4 and 7.4
- Phagocytic number, Study Group ([6]; dose 200 μg): 78 and 85 and 84 and 71 and 67
- ability of neutrophils population to intake microbial cells ([6]; doses of 20 and 2 μg): statistically significant increase
- effect on digestive activity of neutrophils ([6]; doses of 20 and 2 μg): practically no effect
- Phagocytic Index, Study Group, Mean [6, 31]: 6.0 ± 0.16
- Phagocytic number, Study Group, Mean [6, 31]: 86 ± 0.32
- Phagocytic Index, Study Group [6, 31]: 6.4 (2×) and 4.5 and 7.4 and 5.6
- Phagocytic number, Study Group [6, 31]: 88 and 92 (2×) and 78 and 84
- patients with "excellent" or "good" effect ([7]; 20 patients with various forms of AII): 90 % of patients
- Efficacy of the preparation: Excellent (number of patients) ([7]; Acute dysentery, 9 patients): 1
- Efficacy of the preparation: Good (number of patients) ([7]; Acute dysentery, 9 patients): 7
- Efficacy of the preparation: Satisfactory (number of patients) ([7]; Acute dysentery, 9 patients): 1
- Efficacy of the preparation: Excellent (number of patients) [7, 32]: 2
- Efficacy of the preparation: Good (number of patients) [7, 32]: 1
- Efficacy of the preparation: Satisfactory (number of patients) [7, 32]: 1
- Efficacy of the preparation: Excellent (number of patients) [7, 33]: 1
- Efficacy of the preparation: Good (number of patients) [7, 33]: 3
- Efficacy of the preparation: Excellent (number of patients) ([7]; Salmonellosis, 3 patients): 1
- Efficacy of the preparation: Good (number of patients) ([7]; Salmonellosis, 3 patients): 2
- Efficacy of the preparation: Excellent (number of patients) ([7]; Total, 20 patients): 5
- Efficacy of the preparation: Good (number of patients) ([7]; Total, 20 patients): 13
- Efficacy of the preparation: Satisfactory (number of patients) ([7]; Total, 20 patients): 2
- patients in whom the intoxication syndrome resolved within 1 to 3 days ("complete decrease") ([7]; of 20 patients): 19 patients
- patients with "insignificant decrease" in the first days and "complete decrease" by the 5th day of treatment ([7]; of 20 patients): one
- patients with "excellent" or "good" effect ([7]; of 20 patients with various forms of AII): 18 patients

SMILES: Nn1[n-]c(=O)c2ccccc2c1=O.O.O.[Na+] [sodium salt of 2-amino-1,2,3,4-tetrahydrophthalazine-1,4-dione, dihydrate]
- effect in patients with weak cellular immunity reactions [8]: activation of macrophages, interleukins and other acute phase proteins
